Measured values reported in ChEMBL document CHEMBL3045826, “Synthesis of new derivatives of 2,2-dimethyl-2,3-dihydro-7-benzo[b]furanol with potential antimicrobial activity” (Med Chem Res, 2009).
Converted amounts (≈) assume the structure as drawn. The source made the active and inactive calls. The calls are words filed in the database; no cut-off is given here.

How the values were obtained:
Proteus vulgaris [1] = experiment: Antibacterial activity against Proteus vulgaris NCTC 4635 after 18 hr; assay type: functional; conditions: NCTC 4635, 18 h
Pseudomonas aeruginosa [2] = experiment: Antibacterial activity against Pseudomonas aeruginosa ATCC 15442 at 400 ug after 18 hr by disk diffusion method; assay type: functional; conditions: ATCC 15442, 18 h, read-out: DIZ
Candida albicans [3] = experiment: Antifungal activity against Candida albicans ATCC 90028 at 400 ug after 24 to 48 hr by disk diffusion method; assay type: functional; conditions: read-out: DIZ
Pseudomonas aeruginosa [4] = experiment: Antibacterial activity against Pseudomonas aeruginosa ATCC 15442 after 18 hr; assay type: functional; conditions: ATCC 15442, 18 h
Proteus vulgaris [5] = experiment: Antibacterial activity against Proteus vulgaris NCTC 4635 at 400 ug after 18 hr by disk diffusion method; assay type: functional; conditions: NCTC 4635, 18 h, read-out: DIZ
Pseudomonas aeruginosa [6] = experiment: Antibacterial activity against Pseudomonas aeruginosa NCTC 6749 after 18 hr; assay type: functional, organism-based
Staphylococcus aureus [7] = experiment: Antibacterial activity against Staphylococcus aureus ATCC 29213 after 18 hr; assay type: functional; conditions: ATCC 29213, 18 h
Enterococcus hirae [8] = experiment: Antibacterial activity against Enterococcus hirae ATCC 10541 at 400 ug after 18 hr by disk diffusion method; assay type: functional; conditions: ATCC 10541, 18 h, read-out: DIZ
[9] = tested on: Bordetella bronchiseptica; experiment: Antibacterial activity against Bordetella bronchiseptica ATCC 461 after 18 hr; assay type: functional, organism-based
Candida albicans [10] = experiment: Antifungal activity against Candida albicans ATCC 90028 after 18 hr; assay type: functional; conditions: ATCC 90028, 18 h
Staphylococcus aureus [11] = experiment: Antibacterial activity against Staphylococcus aureus ATCC 6538P at 400 ug after 18 hr by disk diffusion method; assay type: functional; conditions: read-out: DIZ
Escherichia coli [12] = experiment: Antibacterial activity against Escherichia coli ATCC 25922 after 18 hr; assay type: functional, organism-based
Bacillus subtilis [13] = experiment: Antibacterial activity against Bacillus subtilis ATCC 6633 at 400 ug after 18 hr by disk diffusion method; assay type: functional; conditions: ATCC 6633, 18 h, read-out: DIZ
Staphylococcus aureus [14] = experiment: Antibacterial activity against Staphylococcus aureus ATCC 25923 after 18 hr; assay type: functional; conditions: ATCC 25923, 18 h
Enterococcus hirae [15] = experiment: Antibacterial activity against Enterococcus hirae ATCC 10541 after 18 hr; assay type: functional; conditions: ATCC 10541, 18 h
Escherichia coli [16] = experiment: Antibacterial activity against Escherichia coli ATCC 10538 after 18 hr; assay type: functional, organism-based
Escherichia coli [17] = experiment: Antibacterial activity against Escherichia coli ATCC 10538 at 400 ug after 18 hr by disk diffusion method; assay type: functional
Staphylococcus aureus [18] = experiment: Antibacterial activity against Staphylococcus aureus ATCC 29213 at 400 ug after 18 hr by disk diffusion method; assay type: functional; conditions: ATCC 29213, 18 h, read-out: DIZ
Candida albicans [19] = experiment: Antifungal activity against Candida albicans ATCC 10231 after 18 hr; assay type: functional; conditions: ATCC 10231, 18 h
Candida parapsilosis [20] = experiment: Antifungal activity against Candida parapsilosis ATCC 22019 after 18 hr; assay type: functional; conditions: Lodderomyces parapsilosis, ATCC 22019, 18 h
Bacillus subtilis [21] = experiment: Antibacterial activity against Bacillus subtilis ATCC 6633 after 18 hr; assay type: functional; conditions: ATCC 6633, 18 h
[22] = tested on: Bordetella bronchiseptica; experiment: Antibacterial activity against Bordetella bronchiseptica ATCC 461 at 400 ug after 18 hr by disk diffusion method; assay type: functional; conditions: for zone of inhibition at 400 µg/disc: ATCC 461, 18 h, read-out: DIZ
Escherichia coli [23] = experiment: Antibacterial activity against Escherichia coli NCTC 8196 at 400 ug after 18 hr by disk diffusion method; assay type: functional; conditions: for zone of inhibition at 400 µg/disc: NCTC 8196, 18 h, read-out: DIZ
Escherichia coli [24] = experiment: Antibacterial activity against Escherichia coli ATCC 25922 at 400 ug after 18 hr by disk diffusion method; assay type: functional
Staphylococcus aureus [25] = experiment: Antibacterial activity against Staphylococcus aureus ATCC 6538P after 18 hr; assay type: functional
Candida parapsilosis [26] = experiment: Antifungal activity against Candida parapsilosis ATCC 22019 at 400 ug after 24 to 48 hr by disk diffusion method; assay type: functional; conditions: Lodderomyces parapsilosis, read-out: DIZ
Staphylococcus aureus [27] = experiment: Antibacterial activity against Staphylococcus aureus NCTC 4163 after 18 hr; assay type: functional; conditions: NCTC 4163, 18 h
Escherichia coli [28] = experiment: Antibacterial activity against Escherichia coli NCTC 8196 after 18 hr; assay type: functional, organism-based
Staphylococcus aureus [29] = experiment: Antibacterial activity against Staphylococcus aureus ATCC 25923 at 400 ug after 18 hr by disk diffusion method; assay type: functional; conditions: ATCC 25923, 18 h, read-out: DIZ
Pseudomonas aeruginosa [30] = experiment: Antibacterial activity against Pseudomonas aeruginosa NCTC 6749 at 400 ug after 18 hr by disk diffusion method; assay type: functional, organism-based
Candida albicans [31] = experiment: Antifungal activity against Candida albicans ATCC 10231 at 400 ug after 24 to 48 hr by disk diffusion method; assay type: functional; conditions: read-out: DIZ
Staphylococcus aureus [32] = experiment: Antibacterial activity against Staphylococcus aureus NCTC 4163 at 400 ug after 18 hr by disk diffusion method; assay type: functional; conditions: NCTC 4163, 18 h, read-out: DIZ

Compound | MIC (Proteus vulgaris [1]) | zone of inhibition at 400 µg/disc (Pseudomonas aeruginosa [2]) | zone of inhibition at 400 µg/disc (Candida albicans [3]) | MIC (Pseudomonas aeruginosa [4]) | zone of inhibition at 400 µg/disc (Proteus vulgaris [5]) | MIC (Pseudomonas aeruginosa [6]) | MIC (Staphylococcus aureus [7]) | zone of inhibition at 400 µg/disc (Enterococcus hirae [8]) | MIC [9] | MIC (Candida albicans [10]) | zone of inhibition at 400 µg/disc (Staphylococcus aureus [11]) | MIC (Escherichia coli [12]) | zone of inhibition at 400 µg/disc (Bacillus subtilis [13]) | MIC (Staphylococcus aureus [14]) | MIC (Enterococcus hirae [15]) | MIC (Escherichia coli [16]) | zone of inhibition at 400 µg/disc (Staphylococcus aureus [18]) | MIC (Candida albicans [19]) | MIC (Candida parapsilosis [20]) | MIC (Bacillus subtilis [21]) | also measured
CC(C)NCC(O)COc1c(Br)c(Br)c(Br)c2c1OC(C)(C)C2 (stereo unspecified) | 12.5 µg/mL (≈ 24.2 µM) | 22 mm | 15 mm | 12.5 µg/mL (≈ 24.2 µM) | 24 mm | inactive | 25 µg/mL (≈ 48.4 µM) | 17 mm | inactive | 200 µg/mL (≈ 388 µM) | 21 mm | inactive | 23 mm | 25 µg/mL (≈ 48.4 µM) | 25 µg/mL (≈ 48.4 µM) | inactive | 20 mm | 200 µg/mL (≈ 388 µM) | 100 µg/mL (≈ 194 µM) | 12.5 µg/mL (≈ 24.2 µM) | diameter of the inhibition zone (DIZ) (Escherichia coli [17]): inactive; zone of inhibition at 400 µg/disc [22]: 11 mm; zone of inhibition at 400 µg/disc (Escherichia coli [23]): 11 mm; diameter of the inhibition zone (DIZ) (Escherichia coli [24]): inactive; MIC (Staphylococcus aureus [25]): 25 µg/mL (≈ 48.4 µM); zone of inhibition at 400 µg/disc (Candida parapsilosis [26]): 17 mm; MIC (Staphylococcus aureus [27]): 50 µg/mL (≈ 96.9 µM); MIC (Escherichia coli [28]): inactive; zone of inhibition at 400 µg/disc (Staphylococcus aureus [29]): 18 mm; diameter of the inhibition zone (DIZ) (Pseudomonas aeruginosa [30]): inactive; zone of inhibition at 400 µg/disc (Candida albicans [31]): 16 mm; zone of inhibition at 400 µg/disc (Staphylococcus aureus [32]): 20 mm
CN(C)CC(O)COc1c(Br)c(Br)c(Br)c2c1OC(C)(C)C2 (stereo unspecified) | 25 µg/mL (≈ 49.8 µM) | 23 mm | 15 mm | 25 µg/mL (≈ 49.8 µM) | 23 mm | inactive | 100 µg/mL (≈ 199 µM) | 19 mm | inactive | 200 µg/mL (≈ 398 µM) | 19 mm | inactive | 24 mm | 100 µg/mL (≈ 199 µM) | 50 µg/mL (≈ 99.6 µM) | inactive | 19 mm | 200 µg/mL (≈ 398 µM) | 100 µg/mL (≈ 199 µM) | 12.5 µg/mL (≈ 24.9 µM) | zone of inhibition at 400 µg/disc (Escherichia coli [17]; ATCC 10538, 18 h, read-out: DIZ): 13 mm; zone of inhibition at 400 µg/disc [22]: 13 mm; zone of inhibition at 400 µg/disc (Escherichia coli [23]): 15 mm; zone of inhibition at 400 µg/disc (Escherichia coli [24]; ATCC 25922, 18 h, read-out: DIZ): 13 mm; MIC (Staphylococcus aureus [25]): 50 µg/mL (≈ 99.6 µM); zone of inhibition at 400 µg/disc (Candida parapsilosis [26]): 20 mm; MIC (Staphylococcus aureus [27]): 50 µg/mL (≈ 99.6 µM); MIC (Escherichia coli [28]): inactive; zone of inhibition at 400 µg/disc (Staphylococcus aureus [29]): 18 mm; diameter of the inhibition zone (DIZ) (Pseudomonas aeruginosa [30]): inactive; zone of inhibition at 400 µg/disc (Candida albicans [31]): 17 mm; zone of inhibition at 400 µg/disc (Staphylococcus aureus [32]): 18 mm
CC1(C)Cc2c(Br)c(Br)c(Br)c(OCC(O)CN3CCCCC3)c2O1 (stereo unspecified) | 50 µg/mL (≈ 92.2 µM) | 20 mm | 18 mm | 25 µg/mL (≈ 46.1 µM) | 20 mm | inactive | 100 µg/mL (≈ 184 µM) | 17 mm | inactive | 100 µg/mL (≈ 184 µM) | 17 mm | inactive | 19 mm | 50 µg/mL (≈ 92.2 µM) | 50 µg/mL (≈ 92.2 µM) | inactive | 16 mm | 100 µg/mL (≈ 184 µM) | 100 µg/mL (≈ 184 µM) | 12.5 µg/mL (≈ 23.1 µM) | diameter of the inhibition zone (DIZ) (Escherichia coli [17]): inactive; diameter of the inhibition zone (DIZ) [22]: inactive; diameter of the inhibition zone (DIZ) (Escherichia coli [23]): inactive; diameter of the inhibition zone (DIZ) (Escherichia coli [24]): inactive; MIC (Staphylococcus aureus [25]): 50 µg/mL (≈ 92.2 µM); zone of inhibition at 400 µg/disc (Candida parapsilosis [26]): 18 mm; MIC (Staphylococcus aureus [27]): 50 µg/mL (≈ 92.2 µM); MIC (Escherichia coli [28]): inactive; zone of inhibition at 400 µg/disc (Staphylococcus aureus [29]): 16 mm; diameter of the inhibition zone (DIZ) (Pseudomonas aeruginosa [30]): inactive; zone of inhibition at 400 µg/disc (Candida albicans [31]): 18 mm; zone of inhibition at 400 µg/disc (Staphylococcus aureus [32]): 18 mm
